# Literature values, collected in patent US6887210B2, “Devices and methods for obtaining mammary fluid samples for evaluating breast diseases, including cancer” (Atossa Healthcare, Inc., priority 2000, dated 2005).
# Conditions: rapid removal from plasma by kidney, liver and mammary gland
compound,measurement,value
CC[C@H](C)[C@@H]1NC(=O)[C@H](Cc2ccc(O)cc2)NC(=O)[C@@H](N)CSSC[C@@H](C(=O)N2CCC[C@H]2C(=O)N[C@@H](CC(C)C)C(=O)NCC(N)=O)NC(=O)[C@H](CC(N)=O)NC(=O)[C@H](CCC(N)=O)NC1=O [oxytocin],half-life of oxytocin in the human bloodstream / circulation,10 to 15 min
